Experimental data as given in patent publication US20150197497A1, “SELECTIVE INHIBITORS OF HISTONE DEACETYLASE ISOFORM 6 AND METHODS THEREOF” (DANA-FARBER CANCER INSTITUTE, INC., priority 2011, published 2015).
pEC50, pIC50: −log10 of the molar value.

Experiments:
HDAC1 = biological target: T1, HDAC1 (Homo sapiens, UniProt Q13547); assay: In vitro HDAC enzyme inhibition assay, HDAC1; format: biochemical; details: for HDAC1/HDAC6 in vitro selectivity: ratio of IC50 for HDAC1 relative to that of HDAC6; for pIC50: recombinant full-length HDAC1, substrate MAZ1600 21 μM
T1 construct: Recombinant, full-length HDAC protein (BPS Biosciences) was incubated with fluorophore conjugated substrate; purchased BPS Biosciences
Protocol: (§1) In vitro Histone Deacetylase enzyme assays were performed using Class I (isoforms: HDAC1, HDAC2, HDAC3 and HDAC8), class IIa (isoforms: HDAC4, HDAC5, HDAC7 and HDAC9) and class IIb (isoform HDAC6).
(§2) HDAC activities were determined in vitro with an optimized homogenous assay performed in a 384-well plate. Recombinant, full-length HDAC protein (BPS Biosciences) was incubated with fluorophore conjugated substrate, MAZ1600 and MAZ1675, at Km=[S]. […] Reactions were performed in assay buffer (50 mM HEPES, 100 mM KCl, 0.001% Tween-20, 0.05% BSA, 200 μM tris(2-carboxyethyl)phosphine (TCEP), pH 7.4) and followed for fluorogenic release of 7-amino-4-methylcoumarin from substrate upon deacetylase and trypsin enzymatic activity. Fluorescence measurements were obtained every five minutes using a multilabel plate reader and plate-stacker (Envision; Perkin-Elmer). Each plate was analyzed by plate repeat, and the first derivative within the linear range was imported into analytical software (Spotfire DecisionSite and GraphPad Prism). Replicate experimental data from incubations with inhibitor were normalized to controls.

HDAC2 = biological target: T2, HDAC2 (Homo sapiens, UniProt Q92769); assay: In vitro HDAC enzyme inhibition assay, HDAC2; format: biochemical; details: for HDAC2/HDAC6 in vitro selectivity: ratio of IC50 for HDAC2 relative to that of HDAC6; for pIC50: recombinant full-length HDAC2, substrate MAZ1600 22 μM
T2 construct: Recombinant, full-length HDAC protein (BPS Biosciences) was incubated with fluorophore conjugated substrate; purchased BPS Biosciences
Protocol: as §1, §2

HDAC3 = biological target: T3, HDAC3 (Homo sapiens, UniProt O15379); assay: In vitro HDAC enzyme inhibition assay, HDAC3; format: biochemical; details: for HDAC3/HDAC6 in vitro selectivity: ratio of IC50 for HDAC3 relative to that of HDAC6; for pIC50: recombinant full-length HDAC3, substrate MAZ1600 9 μM
T3 construct: Recombinant, full-length HDAC protein (BPS Biosciences) was incubated with fluorophore conjugated substrate; purchased BPS Biosciences
Protocol: as §1, §2

HDAC4 = biological target: T4, HDAC4 (Homo sapiens, UniProt P56524); assay: In vitro HDAC enzyme inhibition assay, HDAC4; format: biochemical; details: for HDAC4/HDAC6 in vitro selectivity: ratio of IC50 for HDAC4 relative to that of HDAC6; for pIC50: recombinant full-length HDAC4, substrate MAZ1675 10 μM; for selectivity toward HDAC6 compared to HDAC4 (in words): tested in vitro
T4 construct: Recombinant, full-length HDAC protein (BPS Biosciences) was incubated with fluorophore conjugated substrate; purchased BPS Biosciences
Protocol: as §1, §2

HDAC5 = biological target: T5, HDAC5 (Homo sapiens, UniProt Q9UQL6); assay: In vitro HDAC enzyme inhibition assay, HDAC5; format: biochemical; details: for HDAC5/HDAC6 in vitro selectivity: ratio of IC50 for HDAC5 relative to that of HDAC6; for pIC50: recombinant full-length HDAC5, substrate MAZ1675 40 μM
T5 construct: Recombinant, full-length HDAC protein (BPS Biosciences) was incubated with fluorophore conjugated substrate; purchased BPS Biosciences
Protocol: as §1, §2

HDAC7 = biological target: T6, HDAC7 (Homo sapiens, UniProt Q8WUI4); assay: In vitro HDAC enzyme inhibition assay, HDAC7; format: biochemical; details: for HDAC7/HDAC6 in vitro selectivity: ratio of IC50 for HDAC7 relative to that of HDAC6; for pIC50: recombinant full-length HDAC7, substrate MAZ1675 22 μM
T6 construct: Recombinant, full-length HDAC protein (BPS Biosciences) was incubated with fluorophore conjugated substrate; purchased BPS Biosciences
T6 sequence (Q8WUI4 1-952): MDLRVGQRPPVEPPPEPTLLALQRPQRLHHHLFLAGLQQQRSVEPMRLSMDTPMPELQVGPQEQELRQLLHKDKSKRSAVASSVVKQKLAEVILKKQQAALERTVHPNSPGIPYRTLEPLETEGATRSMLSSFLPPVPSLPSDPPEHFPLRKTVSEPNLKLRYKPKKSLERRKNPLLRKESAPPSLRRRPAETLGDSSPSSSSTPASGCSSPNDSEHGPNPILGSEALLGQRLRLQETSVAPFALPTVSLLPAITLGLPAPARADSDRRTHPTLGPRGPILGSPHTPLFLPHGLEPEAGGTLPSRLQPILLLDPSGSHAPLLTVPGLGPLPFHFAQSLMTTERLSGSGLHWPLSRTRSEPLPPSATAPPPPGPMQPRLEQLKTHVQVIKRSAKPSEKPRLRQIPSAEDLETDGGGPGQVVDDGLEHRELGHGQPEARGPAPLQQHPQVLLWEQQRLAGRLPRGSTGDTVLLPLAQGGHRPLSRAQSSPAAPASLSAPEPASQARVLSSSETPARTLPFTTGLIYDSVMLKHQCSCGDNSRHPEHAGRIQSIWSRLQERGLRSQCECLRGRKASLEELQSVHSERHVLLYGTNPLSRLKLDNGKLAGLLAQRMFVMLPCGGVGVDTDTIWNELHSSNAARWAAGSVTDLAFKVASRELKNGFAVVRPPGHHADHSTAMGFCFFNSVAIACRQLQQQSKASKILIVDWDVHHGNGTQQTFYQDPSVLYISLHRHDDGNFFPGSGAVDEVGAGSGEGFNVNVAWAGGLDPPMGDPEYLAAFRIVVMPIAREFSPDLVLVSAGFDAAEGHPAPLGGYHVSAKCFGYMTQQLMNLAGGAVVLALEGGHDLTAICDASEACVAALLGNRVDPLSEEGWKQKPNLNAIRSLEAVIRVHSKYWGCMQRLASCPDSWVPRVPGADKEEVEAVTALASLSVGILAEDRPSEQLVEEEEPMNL
Protocol: as §1, §2

HDAC8 = biological target: T7, HDAC8 (Homo sapiens, UniProt Q9BY41); assay: In vitro HDAC enzyme inhibition assay, HDAC8; format: biochemical; details: for HDAC8/HDAC6 in vitro selectivity: ratio of IC50 for HDAC8 relative to that of HDAC6; for pIC50: recombinant full-length HDAC8, substrate MAZ1675 282 μM
T7 construct: Recombinant, full-length HDAC protein (BPS Biosciences) was incubated with fluorophore conjugated substrate; purchased BPS Biosciences
T7 sequence (Q9BY41 1-377): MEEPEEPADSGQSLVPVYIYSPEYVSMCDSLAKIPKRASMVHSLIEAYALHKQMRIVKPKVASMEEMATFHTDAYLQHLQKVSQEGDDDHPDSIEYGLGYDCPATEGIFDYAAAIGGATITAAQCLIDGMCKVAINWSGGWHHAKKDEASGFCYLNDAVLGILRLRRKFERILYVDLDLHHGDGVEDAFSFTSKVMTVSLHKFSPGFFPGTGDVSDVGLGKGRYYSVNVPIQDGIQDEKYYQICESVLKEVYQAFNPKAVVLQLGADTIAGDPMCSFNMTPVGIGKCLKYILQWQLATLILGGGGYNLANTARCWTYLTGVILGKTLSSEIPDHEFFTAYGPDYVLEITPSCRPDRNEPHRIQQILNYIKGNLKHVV
Protocol: as §1, §2

HDAC9 = biological target: T8, HDAC9 (Homo sapiens, UniProt Q9UKV0); assay: In vitro HDAC enzyme inhibition assay, HDAC9; format: biochemical; details: for HDAC9/HDAC6 in vitro selectivity: ratio of IC50 for HDAC9 relative to that of HDAC6; for pIC50: recombinant full-length HDAC9, substrate MAZ1675 26 μM; for selectivity toward HDAC6 compared to HDAC9 (in words): tested in vitro
T8 construct: Recombinant, full-length HDAC protein (BPS Biosciences) was incubated with fluorophore conjugated substrate; purchased BPS Biosciences
Protocol: as §1, §2

acetylated tubulin = assay: High-content image analysis of induction of acetylated tubulin in A549 cells; details: for pEC50: Homo sapiens, A549, 8 h, read-out: EC50 for half-maximal induction of acetylated tubulin (AcTubulin); for AcHistone/AcTubulin in cell selectivity toward HDAC6: ratio of EC50 acetylated histone to EC50 acetylated tubulin, A549 cells
acetylated histones = assay: High-content image analysis of induction of acetylated histones in A549 cells; details: Homo sapiens, A549, 8 h, read-out: EC50 for half-maximal induction of acetylated histones (AcHistone)

T3 sequence (O15379 whole entry): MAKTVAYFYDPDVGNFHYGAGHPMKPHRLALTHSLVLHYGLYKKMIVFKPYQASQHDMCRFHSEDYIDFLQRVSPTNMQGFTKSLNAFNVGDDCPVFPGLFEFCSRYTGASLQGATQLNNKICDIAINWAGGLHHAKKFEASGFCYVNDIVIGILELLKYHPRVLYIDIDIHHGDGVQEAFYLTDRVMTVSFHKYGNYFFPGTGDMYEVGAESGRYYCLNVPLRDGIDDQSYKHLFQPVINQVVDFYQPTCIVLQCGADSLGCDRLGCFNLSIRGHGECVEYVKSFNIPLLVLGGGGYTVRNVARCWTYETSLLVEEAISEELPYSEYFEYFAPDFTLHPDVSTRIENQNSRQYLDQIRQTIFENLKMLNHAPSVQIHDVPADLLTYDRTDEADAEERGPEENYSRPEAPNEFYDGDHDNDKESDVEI
T3 sequence (Q9Y618 395-489 partner limits assumed): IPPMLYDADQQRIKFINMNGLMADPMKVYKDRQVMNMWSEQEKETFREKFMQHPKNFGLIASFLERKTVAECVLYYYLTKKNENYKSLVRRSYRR
T2 sequence (Q92769 whole entry): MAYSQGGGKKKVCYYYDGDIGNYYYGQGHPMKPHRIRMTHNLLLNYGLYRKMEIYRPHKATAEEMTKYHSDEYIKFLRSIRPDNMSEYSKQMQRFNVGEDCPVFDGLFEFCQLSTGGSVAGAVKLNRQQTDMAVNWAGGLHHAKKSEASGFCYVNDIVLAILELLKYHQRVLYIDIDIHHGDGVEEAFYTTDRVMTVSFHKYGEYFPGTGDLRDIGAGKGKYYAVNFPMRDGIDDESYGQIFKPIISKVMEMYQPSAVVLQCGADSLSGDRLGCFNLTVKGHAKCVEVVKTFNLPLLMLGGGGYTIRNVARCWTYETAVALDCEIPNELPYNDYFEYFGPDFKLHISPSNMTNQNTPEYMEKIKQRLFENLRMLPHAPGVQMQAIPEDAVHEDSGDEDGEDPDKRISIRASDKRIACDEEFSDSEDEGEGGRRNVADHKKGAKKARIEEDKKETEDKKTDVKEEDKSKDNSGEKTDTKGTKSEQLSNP
T5 sequence (Q9UQL6 whole entry): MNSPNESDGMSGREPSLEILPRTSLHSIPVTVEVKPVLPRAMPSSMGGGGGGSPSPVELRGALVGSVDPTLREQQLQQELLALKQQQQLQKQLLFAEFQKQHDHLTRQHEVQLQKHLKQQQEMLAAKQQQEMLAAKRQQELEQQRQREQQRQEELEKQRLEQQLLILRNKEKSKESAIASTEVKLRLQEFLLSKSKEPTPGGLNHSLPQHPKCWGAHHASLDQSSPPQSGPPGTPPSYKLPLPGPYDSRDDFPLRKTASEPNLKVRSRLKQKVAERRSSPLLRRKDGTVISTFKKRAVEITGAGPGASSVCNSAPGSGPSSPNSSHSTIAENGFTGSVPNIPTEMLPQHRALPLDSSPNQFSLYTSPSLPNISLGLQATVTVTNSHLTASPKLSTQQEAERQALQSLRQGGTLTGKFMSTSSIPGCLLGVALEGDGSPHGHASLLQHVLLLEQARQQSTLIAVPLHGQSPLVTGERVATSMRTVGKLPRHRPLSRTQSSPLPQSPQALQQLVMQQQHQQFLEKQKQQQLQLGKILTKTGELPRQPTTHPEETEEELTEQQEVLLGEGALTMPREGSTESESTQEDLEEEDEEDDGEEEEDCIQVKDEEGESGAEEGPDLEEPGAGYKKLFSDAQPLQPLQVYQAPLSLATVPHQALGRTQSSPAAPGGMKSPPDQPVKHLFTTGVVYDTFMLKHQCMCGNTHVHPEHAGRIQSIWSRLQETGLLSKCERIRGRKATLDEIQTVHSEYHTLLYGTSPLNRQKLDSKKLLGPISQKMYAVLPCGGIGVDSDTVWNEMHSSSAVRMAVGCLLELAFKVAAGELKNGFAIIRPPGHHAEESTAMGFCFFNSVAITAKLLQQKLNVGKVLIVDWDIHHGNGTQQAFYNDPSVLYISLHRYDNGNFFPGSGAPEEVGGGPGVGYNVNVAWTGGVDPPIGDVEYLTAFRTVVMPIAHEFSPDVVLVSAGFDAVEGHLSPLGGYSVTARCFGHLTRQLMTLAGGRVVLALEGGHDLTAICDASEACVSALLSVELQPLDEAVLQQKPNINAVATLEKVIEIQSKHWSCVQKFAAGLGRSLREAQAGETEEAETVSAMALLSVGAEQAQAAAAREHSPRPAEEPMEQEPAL
T8 sequence (Q9UKV0 whole entry): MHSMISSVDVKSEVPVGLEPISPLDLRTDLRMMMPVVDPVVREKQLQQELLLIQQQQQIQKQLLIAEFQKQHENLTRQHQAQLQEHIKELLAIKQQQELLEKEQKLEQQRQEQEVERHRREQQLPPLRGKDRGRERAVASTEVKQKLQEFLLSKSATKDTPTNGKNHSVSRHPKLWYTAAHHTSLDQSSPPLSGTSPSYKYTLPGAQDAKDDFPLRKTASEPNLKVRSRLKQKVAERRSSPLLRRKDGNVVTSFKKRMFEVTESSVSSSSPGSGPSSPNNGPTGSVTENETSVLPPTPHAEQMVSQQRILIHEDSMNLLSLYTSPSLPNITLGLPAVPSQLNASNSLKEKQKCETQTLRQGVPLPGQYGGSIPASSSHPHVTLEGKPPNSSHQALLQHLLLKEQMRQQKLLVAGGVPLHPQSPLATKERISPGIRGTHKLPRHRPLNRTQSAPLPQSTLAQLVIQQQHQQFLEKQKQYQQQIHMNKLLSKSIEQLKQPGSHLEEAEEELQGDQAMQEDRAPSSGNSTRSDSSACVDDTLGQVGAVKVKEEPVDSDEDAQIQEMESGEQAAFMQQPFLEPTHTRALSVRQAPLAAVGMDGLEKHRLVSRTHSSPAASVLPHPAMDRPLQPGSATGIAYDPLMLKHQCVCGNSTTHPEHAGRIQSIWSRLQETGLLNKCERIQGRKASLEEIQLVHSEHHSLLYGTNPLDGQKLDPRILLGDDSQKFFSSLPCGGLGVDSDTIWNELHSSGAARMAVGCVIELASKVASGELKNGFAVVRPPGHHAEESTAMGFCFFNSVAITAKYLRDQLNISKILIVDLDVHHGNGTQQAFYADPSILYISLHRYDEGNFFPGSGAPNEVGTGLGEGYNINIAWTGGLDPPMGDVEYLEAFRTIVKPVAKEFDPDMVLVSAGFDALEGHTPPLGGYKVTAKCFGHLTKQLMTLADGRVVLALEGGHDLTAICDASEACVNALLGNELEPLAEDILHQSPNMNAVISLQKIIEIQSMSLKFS
T1 sequence (Q13547 whole entry): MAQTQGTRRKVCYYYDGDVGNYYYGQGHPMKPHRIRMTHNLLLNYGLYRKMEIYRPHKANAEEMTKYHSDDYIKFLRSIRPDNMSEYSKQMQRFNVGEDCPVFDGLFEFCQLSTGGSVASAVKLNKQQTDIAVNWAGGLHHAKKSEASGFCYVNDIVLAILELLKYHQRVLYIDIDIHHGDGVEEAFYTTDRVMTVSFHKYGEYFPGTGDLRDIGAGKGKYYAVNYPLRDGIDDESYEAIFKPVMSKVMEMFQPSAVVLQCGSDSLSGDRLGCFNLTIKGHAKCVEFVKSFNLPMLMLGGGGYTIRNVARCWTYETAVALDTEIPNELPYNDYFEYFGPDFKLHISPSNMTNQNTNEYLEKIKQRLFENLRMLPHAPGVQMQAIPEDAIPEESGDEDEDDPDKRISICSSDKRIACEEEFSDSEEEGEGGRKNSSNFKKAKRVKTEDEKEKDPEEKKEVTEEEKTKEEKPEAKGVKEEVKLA
T4 sequence (P56524 whole entry): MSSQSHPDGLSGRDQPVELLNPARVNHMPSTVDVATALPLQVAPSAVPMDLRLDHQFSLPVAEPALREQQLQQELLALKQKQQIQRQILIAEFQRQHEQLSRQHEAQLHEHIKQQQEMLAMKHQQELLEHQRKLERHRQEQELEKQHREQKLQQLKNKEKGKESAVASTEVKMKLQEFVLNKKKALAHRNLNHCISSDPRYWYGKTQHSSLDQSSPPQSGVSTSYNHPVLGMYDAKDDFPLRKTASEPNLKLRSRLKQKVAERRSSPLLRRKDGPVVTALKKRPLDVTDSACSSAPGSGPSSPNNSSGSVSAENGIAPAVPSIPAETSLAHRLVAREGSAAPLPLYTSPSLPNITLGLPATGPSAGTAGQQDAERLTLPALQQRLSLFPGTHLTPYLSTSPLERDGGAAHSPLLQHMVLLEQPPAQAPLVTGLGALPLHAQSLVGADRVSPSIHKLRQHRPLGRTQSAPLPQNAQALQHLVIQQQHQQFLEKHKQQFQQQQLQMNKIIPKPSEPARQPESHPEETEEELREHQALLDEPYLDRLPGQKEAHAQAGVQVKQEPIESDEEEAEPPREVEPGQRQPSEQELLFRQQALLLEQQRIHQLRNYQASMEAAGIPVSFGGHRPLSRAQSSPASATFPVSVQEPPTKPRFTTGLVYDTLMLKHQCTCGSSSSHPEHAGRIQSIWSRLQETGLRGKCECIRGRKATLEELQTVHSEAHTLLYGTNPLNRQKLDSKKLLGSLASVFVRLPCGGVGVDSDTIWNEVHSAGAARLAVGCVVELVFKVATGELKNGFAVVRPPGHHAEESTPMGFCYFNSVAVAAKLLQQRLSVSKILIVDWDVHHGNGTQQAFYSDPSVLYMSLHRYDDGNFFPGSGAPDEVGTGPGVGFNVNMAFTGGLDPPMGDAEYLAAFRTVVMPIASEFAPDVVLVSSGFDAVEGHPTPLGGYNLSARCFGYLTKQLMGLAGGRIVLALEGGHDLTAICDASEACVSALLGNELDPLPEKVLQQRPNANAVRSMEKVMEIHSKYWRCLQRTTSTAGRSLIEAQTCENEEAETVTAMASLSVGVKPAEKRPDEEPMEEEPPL

Compound	HDAC1/HDAC6 in vitro selectivity (HDAC1)	pIC50 (HDAC1)	HDAC2/HDAC6 in vitro selectivity (HDAC2)	pIC50 (HDAC2)	HDAC3/HDAC6 in vitro selectivity (HDAC3)	pIC50 (HDAC3)	HDAC4/HDAC6 in vitro selectivity (HDAC4)	pIC50 (HDAC4)	selectivity toward HDAC6 compared to HDAC4 (in words) (HDAC4)	HDAC5/HDAC6 in vitro selectivity (HDAC5)	pIC50 (HDAC5)	HDAC7/HDAC6 in vitro selectivity (HDAC7)	pIC50 (HDAC7)	HDAC8/HDAC6 in vitro selectivity (HDAC8)	pIC50 (HDAC8)	HDAC9/HDAC6 in vitro selectivity (HDAC9)	pIC50 (HDAC9)	pEC50 (acetylated tubulin)	AcHistone/AcTubulin in cell selectivity toward HDAC6 (acetylated tubulin)	pEC50 (acetylated histones)	other results
O=C(NO)c1ccc(Cn2cnc3cc(Br)ccc32)cc1 [A11, 4-((5-bromo-1H-benzo[d]imidazol-1-yl)methyl)-N-hydroxybenzamide]	1725	7.54	1601	7.57	3936	7.18	93190	5.81	exceptionally high selectivity (Inhibitors with in vitro selectivity values for HDAC6 of at least 30,000 are considered to have exceptionally high selectivity toward HDAC6)	25649	6.37	4265	7.15	18285	6.52	61100	5.99	6.76	11.31	5.71	selectivity toward HDAC6 compared to HDAC9 (in words) (HDAC9): exceptionally high selectivity (Inhibitors with in vitro selectivity values for HDAC6 of at least 30,000 are considered to have exceptionally high selectivity toward HDAC6)
COc1ccc2c(c1)ncn2Cc1ccc(C(=O)NO)cc1 [A12, N-hydroxy-4-((5-methoxy-1H-benzo[d]imidazol-1-yl)methyl)benzamide]	1378	6.52	1125	6.61	2293	6.30	12423	5.57		7819	5.77	4070	6.05	6543	5.85	10933	5.63	6.66	0.4738	6.98	
O=C(NO)c1ccc(Cn2c(=O)[nH]c3ccccc32)cc1 [B1, N-hydroxy-4-((2-oxo-2,3-dihydro-1H-benzo[d]imidazol-1-yl)methyl)benzamide]	9665	6.85	6974	6.99	14575	6.67	153386	5.65	exceptionally high selectivity (Inhibitors with in vitro selectivity values for HDAC6 of at least 30,000 are considered to have exceptionally high selectivity toward HDAC6)	117927	5.77	30509	6.35	46328	6.17	155186	5.65	7.05	2.941	6.58	selectivity toward HDAC6 compared to HDAC5 (in words) (HDAC5; tested in vitro): exceptionally high selectivity (Inhibitors with in vitro selectivity values for HDAC6 of at least 30,000 are considered to have exceptionally high selectivity toward HDAC6); selectivity toward HDAC6 compared to HDAC7 (in words) (HDAC7; tested in vitro): exceptionally high selectivity (Inhibitors with in vitro selectivity values for HDAC6 of at least 30,000 are considered to have exceptionally high selectivity toward HDAC6); selectivity toward HDAC6 compared to HDAC8 (in words) (HDAC8; tested in vitro): exceptionally high selectivity (Inhibitors with in vitro selectivity values for HDAC6 of at least 30,000 are considered to have exceptionally high selectivity toward HDAC6); selectivity toward HDAC6 compared to HDAC9 (in words) (HDAC9): exceptionally high selectivity (Inhibitors with in vitro selectivity values for HDAC6 of at least 30,000 are considered to have exceptionally high selectivity toward HDAC6)
